Reference: ChEMBL document CHEMBL1123138 (J Med Chem, 1985)

System: Rattus norvegicus
Experiment: Effective dose required to inhibit sorbitol accumulation in sciatic nerves of streptozotocinized rats administered perorally
Format: functional, Sciatic nerve

| Structure (SMILES) | ED50 [mg/kg] |
| --- | --- |
| O=C1NC(=O)[C@@]2(CCOc3ccc(F)cc32)N1 (stereo in doubt; form 1) [SORBINIL] | 0.25 |
| O=C1NC(=O)[C@@]2(CCOc3ccc(F)cc32)N1 (stereo in doubt; form 2) [SORBINIL] | 25 |
